Laboratory results from ChEMBL document CHEMBL1201862, “PubChem BioAssay data set” (2004).
The source made the active and inactive calls. Rule as the data show it, for most assays here: actives have a measured IC50 and inactives only a lower limit.

Key:
[1] = loss of viability in HepG2 cells – cell-based, CellTiter-Glo, cherry-picked, cytotoxicity control for Shn3 inhibitor project, dose response (AID 624134); type: functional
[2] = target: Nucleotide-binding oligomerization domain-containing protein 2 (Homo sapiens, UniProt Q9HC29); assay: inhibition of NOD2-driven NF-kB reporter – cell-based, luminescence, uHTS, HEK293 (AID 1566); type: functional
Sequence of Nucleotide-binding oligomerization domain-containing protein 2 (Q9HC29 whole entry, the tested form may be a part): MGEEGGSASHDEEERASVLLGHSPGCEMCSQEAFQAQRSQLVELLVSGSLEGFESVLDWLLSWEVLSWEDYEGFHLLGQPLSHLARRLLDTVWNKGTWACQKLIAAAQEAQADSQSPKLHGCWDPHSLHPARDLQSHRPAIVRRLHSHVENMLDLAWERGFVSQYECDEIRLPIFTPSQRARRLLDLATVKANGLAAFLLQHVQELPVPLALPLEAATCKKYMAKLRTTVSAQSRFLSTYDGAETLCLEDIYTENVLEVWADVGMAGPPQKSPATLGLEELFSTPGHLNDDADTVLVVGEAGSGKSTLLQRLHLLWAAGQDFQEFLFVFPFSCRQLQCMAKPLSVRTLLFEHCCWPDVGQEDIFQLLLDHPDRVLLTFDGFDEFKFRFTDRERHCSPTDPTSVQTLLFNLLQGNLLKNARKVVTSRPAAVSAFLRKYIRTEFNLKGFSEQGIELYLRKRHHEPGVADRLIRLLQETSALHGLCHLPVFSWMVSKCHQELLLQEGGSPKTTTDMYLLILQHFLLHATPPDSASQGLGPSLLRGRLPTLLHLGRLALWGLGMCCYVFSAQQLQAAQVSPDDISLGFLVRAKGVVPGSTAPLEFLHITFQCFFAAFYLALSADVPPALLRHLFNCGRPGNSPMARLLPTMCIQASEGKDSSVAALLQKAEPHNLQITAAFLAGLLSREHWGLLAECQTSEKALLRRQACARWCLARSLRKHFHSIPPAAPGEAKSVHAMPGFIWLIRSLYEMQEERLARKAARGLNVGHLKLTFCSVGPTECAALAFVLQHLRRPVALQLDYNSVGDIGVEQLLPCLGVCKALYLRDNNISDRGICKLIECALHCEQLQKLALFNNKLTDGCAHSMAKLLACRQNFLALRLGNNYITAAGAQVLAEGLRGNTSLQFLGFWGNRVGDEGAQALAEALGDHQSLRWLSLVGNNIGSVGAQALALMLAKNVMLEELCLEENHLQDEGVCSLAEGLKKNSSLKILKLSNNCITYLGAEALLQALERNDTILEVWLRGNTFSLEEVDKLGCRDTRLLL

HEK293 [3] = assay: NOD2 signaling inhibitors in MDP-stimulated cells, cell-based, uHTS, luminescence (AID 2001); type: functional; conditions: Homo sapiens
[4] = reduction of Shn3 3'UTR-driven luciferase in osteoblasts – cell-based, Clone20 osteoblasts, firefly luciferase, cherry-picked, dose response (AID 624132); type: functional;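 also: firefly luciferase luminescence from reporter carrying the Shn3 3'UTR in osteoblasts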
Tumor necrosis factor = Tumor necrosis factor (Homo sapiens, UniProt P01375); assay: analog potency on TNFa NF-kB signaling – cell-based, revised, SAR follow-up (AID 2337); type: functional
Sequence of Tumor necrosis factor (P01375 whole entry): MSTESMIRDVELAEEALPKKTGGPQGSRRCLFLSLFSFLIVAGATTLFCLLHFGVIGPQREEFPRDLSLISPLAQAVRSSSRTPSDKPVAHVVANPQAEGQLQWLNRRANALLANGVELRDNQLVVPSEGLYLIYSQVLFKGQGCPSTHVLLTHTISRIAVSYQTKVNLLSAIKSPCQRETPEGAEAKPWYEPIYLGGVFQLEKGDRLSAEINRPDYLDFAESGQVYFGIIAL

INS1 = assay: INS-1E survival protection against cytokine death – cell-based, luminescence, retest, dose response (AID 449756); type: functional; conditions: Rattus norvegicus;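 also: cell death triggered by IL-1 beta plus TNF-alpha plus IFN-gamma mixture; protective hits raise ATP signal compared with cytokine alone wells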
HEK293 [5] = assay: cells; type: functional, cell-based; conditions: Homo sapiens
[6] = non-specific 3'UTR reporter inhibition in Clone20-Shn3RL – cell-based, Renilla luciferase, cherry-picked, counter-screen for Shn3 inhibitor project, dose response (AID 624133); type: functional
HEK293 [7] = assay: inhibition of NOD1-driven NF-kB reporter – cell-based, luminescence, uHTS, primary screen (AID 1578); type: functional; conditions: Homo sapiens
[8] = target: 26S proteasome non-ATPase regulatory subunit 14 (Homo sapiens, UniProt O00487); assay: inhibition of proteasome subunit RPN11 – biochemical, fluorescence polarization, uHTS hits, confirmation (AID 602368); type: functional
Sequence of 26S proteasome non-ATPase regulatory subunit 14 (O00487 whole entry, the tested form may be a part): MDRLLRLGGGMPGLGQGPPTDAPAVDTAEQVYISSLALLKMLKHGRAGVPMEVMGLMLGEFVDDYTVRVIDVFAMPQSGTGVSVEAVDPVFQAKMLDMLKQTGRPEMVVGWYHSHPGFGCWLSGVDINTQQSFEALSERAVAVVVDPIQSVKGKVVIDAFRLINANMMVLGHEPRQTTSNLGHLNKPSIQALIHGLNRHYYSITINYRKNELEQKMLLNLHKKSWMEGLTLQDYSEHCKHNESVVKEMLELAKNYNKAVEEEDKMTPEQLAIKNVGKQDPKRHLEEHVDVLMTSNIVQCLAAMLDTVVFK

[9] = target: T1, Nucleotide-binding oligomerization domain-containing protein 1 (Homo sapiens, UniProt Q9Y239); assay: blockers of NOD1 pathway activity – revised, SAR follow-up (AID 2333); type: functional
T1 sequence (Q9Y239 whole entry): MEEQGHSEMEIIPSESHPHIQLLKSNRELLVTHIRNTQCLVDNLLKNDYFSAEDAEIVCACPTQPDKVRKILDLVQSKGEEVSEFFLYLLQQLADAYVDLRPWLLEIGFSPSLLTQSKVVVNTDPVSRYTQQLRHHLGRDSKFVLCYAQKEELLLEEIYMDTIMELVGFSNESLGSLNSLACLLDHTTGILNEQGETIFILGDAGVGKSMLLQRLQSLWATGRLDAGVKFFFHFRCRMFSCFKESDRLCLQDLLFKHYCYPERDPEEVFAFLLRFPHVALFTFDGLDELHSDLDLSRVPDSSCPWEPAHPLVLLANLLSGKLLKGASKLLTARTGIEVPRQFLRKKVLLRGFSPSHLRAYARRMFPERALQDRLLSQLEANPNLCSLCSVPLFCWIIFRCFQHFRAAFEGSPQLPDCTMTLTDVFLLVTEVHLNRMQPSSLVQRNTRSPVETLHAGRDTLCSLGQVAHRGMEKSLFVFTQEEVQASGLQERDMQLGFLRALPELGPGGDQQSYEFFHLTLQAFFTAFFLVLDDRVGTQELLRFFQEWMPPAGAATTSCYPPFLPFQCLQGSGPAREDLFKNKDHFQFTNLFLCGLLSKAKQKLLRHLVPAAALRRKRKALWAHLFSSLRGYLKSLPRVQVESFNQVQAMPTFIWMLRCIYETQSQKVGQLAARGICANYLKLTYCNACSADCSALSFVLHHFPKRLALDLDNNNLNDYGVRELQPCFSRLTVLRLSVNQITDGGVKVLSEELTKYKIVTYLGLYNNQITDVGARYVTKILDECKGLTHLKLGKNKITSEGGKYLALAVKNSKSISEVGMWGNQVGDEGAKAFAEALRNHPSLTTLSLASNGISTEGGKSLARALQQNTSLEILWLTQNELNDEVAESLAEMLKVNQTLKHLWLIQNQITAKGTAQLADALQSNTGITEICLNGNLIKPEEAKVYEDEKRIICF

Prothrombin = Prothrombin (Bos taurus, UniProt P00735); assay: thrombin protease inhibitors – biochemical, fluorescence polarization, uHTS hits, dose response (AID 602369); type: functional
HEK293 [10] = assay: cells; type: functional, cell-based; conditions: Homo sapiens; remark: listed apart in the source
HEK293 [11] = assay: cells; conditions: Homo sapiens
HEK293 [12] = assay: EBV LMP1 TES2 canonical NF-kB signalling blockers – cell-based, HEK293, luciferase, cherry-pick, dose response (AID 588343); type: functional; conditions: Homo sapiens
HEK293 [13] = assay: cells; type: functional, cell-based; conditions: Homo sapiens; remark: listed apart in the source
[14] = target: 72 kDa type IV collagenase (Homo sapiens, UniProt P08253); assay: Dose Response validation of uHTS RPN11 inhibitor hits using a MMP-2 Fluorescence assay.; type: functional
Sequence of 72 kDa type IV collagenase (P08253 whole entry): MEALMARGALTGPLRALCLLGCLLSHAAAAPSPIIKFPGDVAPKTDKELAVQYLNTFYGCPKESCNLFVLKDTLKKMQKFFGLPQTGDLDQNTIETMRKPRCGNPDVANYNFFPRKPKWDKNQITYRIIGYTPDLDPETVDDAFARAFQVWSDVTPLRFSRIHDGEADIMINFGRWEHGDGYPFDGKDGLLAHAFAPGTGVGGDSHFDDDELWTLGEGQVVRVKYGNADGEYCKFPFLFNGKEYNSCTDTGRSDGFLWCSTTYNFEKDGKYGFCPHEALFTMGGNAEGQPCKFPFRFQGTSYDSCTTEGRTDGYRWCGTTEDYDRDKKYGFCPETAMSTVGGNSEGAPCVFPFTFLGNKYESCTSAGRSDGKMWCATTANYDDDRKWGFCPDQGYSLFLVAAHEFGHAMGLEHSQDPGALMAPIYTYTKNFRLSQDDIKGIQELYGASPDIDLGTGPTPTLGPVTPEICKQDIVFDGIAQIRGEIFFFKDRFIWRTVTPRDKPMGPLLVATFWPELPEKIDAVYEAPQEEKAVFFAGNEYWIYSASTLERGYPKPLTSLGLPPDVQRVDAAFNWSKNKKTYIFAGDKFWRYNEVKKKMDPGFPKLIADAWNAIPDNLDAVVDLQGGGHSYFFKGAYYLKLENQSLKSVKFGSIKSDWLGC

[15] = target: T2, Sentrin-specific protease 6 (Homo sapiens, UniProt Q9GZR1); assay: SAR Analysis of small molecule inhibitors of Sentrin-specific protease 6 (SENP6) using a Luminescent assay. [Related pubchem assays (depositor defined):AID2582, AID2599]; type: functional
T2 sequence (Q9GZR1 whole entry): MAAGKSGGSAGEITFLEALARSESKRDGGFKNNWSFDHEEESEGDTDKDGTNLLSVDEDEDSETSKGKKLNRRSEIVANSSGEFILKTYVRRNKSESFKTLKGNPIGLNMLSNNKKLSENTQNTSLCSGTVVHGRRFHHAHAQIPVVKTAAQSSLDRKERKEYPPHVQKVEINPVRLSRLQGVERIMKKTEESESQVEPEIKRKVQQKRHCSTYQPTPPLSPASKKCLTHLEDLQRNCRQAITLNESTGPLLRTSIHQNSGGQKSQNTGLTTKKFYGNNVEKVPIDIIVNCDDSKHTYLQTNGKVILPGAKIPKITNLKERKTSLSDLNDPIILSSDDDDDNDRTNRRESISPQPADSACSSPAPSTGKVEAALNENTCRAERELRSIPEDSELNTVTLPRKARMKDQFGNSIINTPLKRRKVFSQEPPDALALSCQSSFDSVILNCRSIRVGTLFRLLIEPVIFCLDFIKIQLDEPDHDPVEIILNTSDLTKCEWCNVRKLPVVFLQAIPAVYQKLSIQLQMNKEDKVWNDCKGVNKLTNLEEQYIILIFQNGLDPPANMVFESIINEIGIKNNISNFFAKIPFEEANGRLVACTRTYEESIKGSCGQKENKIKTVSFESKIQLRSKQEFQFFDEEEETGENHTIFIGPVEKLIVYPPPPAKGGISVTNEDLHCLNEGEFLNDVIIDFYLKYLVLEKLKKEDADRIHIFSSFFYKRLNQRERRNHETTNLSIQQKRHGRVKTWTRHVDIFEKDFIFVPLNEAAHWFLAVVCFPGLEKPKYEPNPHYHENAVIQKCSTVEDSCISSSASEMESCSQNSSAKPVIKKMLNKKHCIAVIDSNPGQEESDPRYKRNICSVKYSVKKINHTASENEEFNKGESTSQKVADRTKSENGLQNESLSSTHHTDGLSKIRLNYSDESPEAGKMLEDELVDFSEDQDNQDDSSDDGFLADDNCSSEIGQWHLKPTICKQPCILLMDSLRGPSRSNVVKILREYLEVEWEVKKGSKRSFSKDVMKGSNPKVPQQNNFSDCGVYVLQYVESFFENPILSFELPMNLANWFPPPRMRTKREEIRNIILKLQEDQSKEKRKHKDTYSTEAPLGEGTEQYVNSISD

Caspase-3 = target: T3, Caspase-3 (Homo sapiens, UniProt P42574); assay: SAR Analysis of small molecule inhibitors of Sentrin-specific proteases (SENPs) using a Caspase-3 Selectivity assay. [Related pubchem assays (depositor defined):AID2540, AID2599, AID434973, AID489001]; type: functional
T3 sequence (P42574 whole entry): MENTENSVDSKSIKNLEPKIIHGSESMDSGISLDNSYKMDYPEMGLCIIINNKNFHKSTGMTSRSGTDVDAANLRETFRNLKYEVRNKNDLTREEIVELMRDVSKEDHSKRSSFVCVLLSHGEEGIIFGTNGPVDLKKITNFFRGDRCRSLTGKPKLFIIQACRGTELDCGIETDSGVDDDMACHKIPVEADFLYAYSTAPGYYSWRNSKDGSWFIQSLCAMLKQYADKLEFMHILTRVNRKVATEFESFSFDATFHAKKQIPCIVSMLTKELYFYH

[16] = target: T4, Sentrin-specific protease 8 (Homo sapiens, UniProt Q96LD8); assay: inhibition of human SENP8 cleavage activity – biochemical, luminescence, SAR follow-up (AID 504501); type: functional
T4 sequence (Q96LD8 whole entry): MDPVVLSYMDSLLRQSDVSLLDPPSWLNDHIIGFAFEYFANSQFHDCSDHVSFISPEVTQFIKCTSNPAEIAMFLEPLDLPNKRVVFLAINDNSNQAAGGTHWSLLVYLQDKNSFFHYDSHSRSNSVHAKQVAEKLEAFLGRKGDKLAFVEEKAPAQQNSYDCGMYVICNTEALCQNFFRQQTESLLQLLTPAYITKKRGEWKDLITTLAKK

[17] = target: T5, Sentrin-specific protease 7 (Homo sapiens, UniProt Q9BQF6); assay: inhibition of human SENP7 cleavage activity – biochemical, luminescence, SAR follow-up (AID 504497); type: functional
T5 sequence (Q9BQF6 whole entry): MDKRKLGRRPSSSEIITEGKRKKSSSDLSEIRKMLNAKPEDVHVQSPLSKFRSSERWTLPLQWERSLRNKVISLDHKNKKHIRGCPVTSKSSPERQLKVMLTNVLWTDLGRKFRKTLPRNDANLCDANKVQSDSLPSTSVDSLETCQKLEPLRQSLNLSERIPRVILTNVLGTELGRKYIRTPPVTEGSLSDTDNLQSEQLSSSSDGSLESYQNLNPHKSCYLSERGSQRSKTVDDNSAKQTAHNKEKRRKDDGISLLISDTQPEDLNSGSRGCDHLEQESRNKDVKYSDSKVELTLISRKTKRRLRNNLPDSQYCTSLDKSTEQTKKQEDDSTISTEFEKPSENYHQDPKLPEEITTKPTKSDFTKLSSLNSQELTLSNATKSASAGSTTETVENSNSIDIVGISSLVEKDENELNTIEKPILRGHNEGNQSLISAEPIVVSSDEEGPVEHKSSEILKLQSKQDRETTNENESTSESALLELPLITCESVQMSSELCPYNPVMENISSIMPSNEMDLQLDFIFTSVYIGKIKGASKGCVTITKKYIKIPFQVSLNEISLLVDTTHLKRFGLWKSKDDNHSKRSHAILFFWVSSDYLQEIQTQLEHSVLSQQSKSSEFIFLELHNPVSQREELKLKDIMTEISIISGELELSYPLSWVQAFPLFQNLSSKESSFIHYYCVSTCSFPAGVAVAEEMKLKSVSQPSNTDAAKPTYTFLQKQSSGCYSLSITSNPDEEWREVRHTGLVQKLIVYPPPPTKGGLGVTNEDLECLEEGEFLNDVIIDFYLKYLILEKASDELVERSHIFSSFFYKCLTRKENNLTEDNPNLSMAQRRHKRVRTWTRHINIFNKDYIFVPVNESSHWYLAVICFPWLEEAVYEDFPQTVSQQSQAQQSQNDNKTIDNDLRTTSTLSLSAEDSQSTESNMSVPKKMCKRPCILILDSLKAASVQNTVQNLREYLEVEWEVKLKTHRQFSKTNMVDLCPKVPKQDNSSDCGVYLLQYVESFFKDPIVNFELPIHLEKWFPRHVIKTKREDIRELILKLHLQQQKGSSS

[18] = target: ALK tyrosine kinase receptor (Homo sapiens, UniProt Q9UM73); type: functional;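 also: ALK tested as one member of a kinase panel screen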
Sequence of ALK tyrosine kinase receptor (Q9UM73 whole entry): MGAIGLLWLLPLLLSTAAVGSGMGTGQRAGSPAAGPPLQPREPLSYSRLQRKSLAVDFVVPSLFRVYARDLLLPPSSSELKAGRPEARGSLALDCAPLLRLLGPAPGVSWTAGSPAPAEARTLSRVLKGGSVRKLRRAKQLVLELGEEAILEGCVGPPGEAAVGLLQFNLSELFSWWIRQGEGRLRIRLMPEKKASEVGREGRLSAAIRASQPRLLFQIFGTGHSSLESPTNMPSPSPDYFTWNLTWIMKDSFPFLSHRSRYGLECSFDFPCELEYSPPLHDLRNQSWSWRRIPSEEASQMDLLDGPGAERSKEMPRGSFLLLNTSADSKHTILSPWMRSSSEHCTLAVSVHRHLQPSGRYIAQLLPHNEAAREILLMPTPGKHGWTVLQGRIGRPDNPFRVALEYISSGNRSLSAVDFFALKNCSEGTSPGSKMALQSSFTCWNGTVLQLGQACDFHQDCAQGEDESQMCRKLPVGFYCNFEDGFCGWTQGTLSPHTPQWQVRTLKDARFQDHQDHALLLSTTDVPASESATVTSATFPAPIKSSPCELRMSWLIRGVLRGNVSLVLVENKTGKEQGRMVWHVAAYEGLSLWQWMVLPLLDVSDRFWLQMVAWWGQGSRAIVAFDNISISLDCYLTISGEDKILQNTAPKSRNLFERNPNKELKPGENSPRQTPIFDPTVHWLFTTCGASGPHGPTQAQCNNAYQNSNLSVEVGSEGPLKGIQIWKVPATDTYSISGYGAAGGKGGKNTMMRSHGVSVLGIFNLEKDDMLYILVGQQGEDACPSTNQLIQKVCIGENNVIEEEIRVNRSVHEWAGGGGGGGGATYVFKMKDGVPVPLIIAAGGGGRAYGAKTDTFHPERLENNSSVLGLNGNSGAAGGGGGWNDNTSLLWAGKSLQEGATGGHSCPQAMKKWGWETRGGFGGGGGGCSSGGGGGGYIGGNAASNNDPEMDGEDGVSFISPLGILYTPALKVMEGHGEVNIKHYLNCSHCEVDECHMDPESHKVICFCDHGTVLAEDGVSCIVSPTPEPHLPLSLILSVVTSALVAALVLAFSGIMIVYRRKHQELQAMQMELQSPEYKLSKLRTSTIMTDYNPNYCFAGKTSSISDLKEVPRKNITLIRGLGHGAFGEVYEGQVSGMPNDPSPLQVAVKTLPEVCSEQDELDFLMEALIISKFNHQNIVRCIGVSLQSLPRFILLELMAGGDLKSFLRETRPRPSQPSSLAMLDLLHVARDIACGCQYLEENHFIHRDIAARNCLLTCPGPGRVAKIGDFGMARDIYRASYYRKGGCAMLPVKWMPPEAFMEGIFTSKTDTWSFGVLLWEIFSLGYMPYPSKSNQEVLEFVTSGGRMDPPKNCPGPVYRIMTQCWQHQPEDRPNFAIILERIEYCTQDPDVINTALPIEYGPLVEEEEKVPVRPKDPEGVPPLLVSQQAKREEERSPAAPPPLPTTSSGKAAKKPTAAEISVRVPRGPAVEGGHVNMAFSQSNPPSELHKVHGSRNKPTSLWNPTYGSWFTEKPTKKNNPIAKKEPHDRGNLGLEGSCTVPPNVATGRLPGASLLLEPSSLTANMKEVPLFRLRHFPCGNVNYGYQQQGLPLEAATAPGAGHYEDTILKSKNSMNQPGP

[19] = target: Cyclin-dependent kinase 19 (Homo sapiens, UniProt Q9BWU1); assay: Navigating the Kinome. Panel member name: CDC2L6; type: functional
Sequence of Cyclin-dependent kinase 19 (Q9BWU1 whole entry): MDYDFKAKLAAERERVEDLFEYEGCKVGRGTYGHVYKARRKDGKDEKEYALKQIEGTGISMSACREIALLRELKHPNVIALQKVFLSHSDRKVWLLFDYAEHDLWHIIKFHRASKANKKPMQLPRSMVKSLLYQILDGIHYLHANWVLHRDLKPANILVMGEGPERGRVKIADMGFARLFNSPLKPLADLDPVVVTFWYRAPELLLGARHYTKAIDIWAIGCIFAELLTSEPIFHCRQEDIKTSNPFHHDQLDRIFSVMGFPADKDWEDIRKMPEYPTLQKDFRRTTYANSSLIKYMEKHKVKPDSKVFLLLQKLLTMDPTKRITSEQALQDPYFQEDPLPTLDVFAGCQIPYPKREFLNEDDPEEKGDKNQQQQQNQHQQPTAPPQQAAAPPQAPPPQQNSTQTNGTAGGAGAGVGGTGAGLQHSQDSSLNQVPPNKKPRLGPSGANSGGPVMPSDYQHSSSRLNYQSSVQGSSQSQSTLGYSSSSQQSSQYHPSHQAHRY

Cc1ccc(NC(=O)C2CCN(S(=O)(=O)c3ccc4c(c3)NC(=O)C(C)S4)CC2)cc1Cl (configuration not stated)
AC50 [1]: 6.82 µM (active)
EC50 [2]: 8.36 µM (active)
IC50 (HEK293 [3]): 2.94 µM (inactive)
AC50 [4]: 2.83 µM (active)
IC50 (Tumor necrosis factor): 2.84 µM (active)
AC50 (INS1): 3.7 µM (active)
IC50 (HEK293 [5]): > 20 µM (inactive)
AC50 [6]: 2.48 µM (active)
EC50 (HEK293 [7]): 5.35 µM (active)
IC50 [8]: 49.4 µM (active)
IC50 [9]: 2.87 µM (active)
IC50 (Prothrombin): 46 µM (active)
IC50 (HEK293 [10]): 2.72 µM (active)
IC50 (HEK293 [11]): 5.08 µM (active)
AC50 (HEK293 [12]): 15.3 µM (active)
IC50 (HEK293 [13]): 4.25 µM (active)
IC50 [14]: > 100 µM (inactive)

O=C(c1ccc(Cl)s1)N(Cc1cccnc1)c1nc2c(F)cc(F)cc2s1
IC50 [15]: > 99 µM (inactive)
IC50 (Caspase-3): > 99 µM (inactive)
IC50 [16]: > 99 µM (inactive)
IC50 [17]: > 99 µM (inactive)

Cc1ccc(C(=O)Nc2sc3c(c2C#N)CCCCCC3)o1
IC50 [15]: > 99 µM (inactive)
IC50 (Caspase-3): > 99 µM (inactive)
IC50 [16]: > 99 µM (inactive)
IC50 [17]: 39.1 µM (active)

Cc1nn(-c2nc3ccccc3[nH]2)c(O)c1C1OC(=O)c2ccccc21 (configuration not stated)
Ki [18]: 0.2 µM (active)
Ki [19]: 2 µM (active)
